From patent US20230226184A1, “IMPROVEMENTS IN ULTRASOUND-MEDIATED THERAPY” (Bracco Suisse SA, priority 2020, published 2023)

Columns and labels:
[1] = system: mesenteric rat microcirculation; assay: Vasospasm inhibition by vasospasm inhibitor pre-treatment before US-MV (Examples 4, 7); type: in vivo; conditions: for ability to inhibit the vasospasm: Example 7, conditions of Table 6 (P02, US 400 kPa, 5 min); for Vasospasm occurrence (on 3 animals/condition) / Vasospasm occurrence, percent: P02 1.5E+09 MV/kg, 1 bolus, US 400 kPa, 1 ms ON/10 s OFF, 5 min
Method: The model used for these experiments was the mesenteric rat microcirculation. Briefly, anesthetized animals were prepared to allow the visualization of an intestinal loop. The injections were made in the tail vein.
Rats were placed under the inverted microscope (Olympus® X2) equipped with a X20 objectives (mag final: 200). A numeric camera, driven by an open source software, acquired and recorded 30 s video at each time points required, in accordance with the protocol.
US treatment was delivered by an experimental single element transducer (unfocused, plane, 1.5 MHz). Table 1 reports the tested US parameters, including the pulse scheme, the acoustic pressure and the duration of US application, for each protocol. The transducer was focus on the optical objective and placed to respect a working distance of 5 cm.
Image sequences were acquired, before, during and after treatment. Additional acquisitions could be performed every 5 min until 40 min after the initiation of US exposure to monitor the vasospasm resolution.
The model used for these experiments was the mesenteric rat microcirculation. The model and animal preparation were described in example 2.
This study aimed at the evaluation of the inhibition of vasospasm induced by a vasospasm inhibitor compound, in particular the dihydropiridine calcium channel blocker nimodipine.
For this purpose, the rats received a pre-treatment with nimodipine, 10 mins before the combined treatment of gas-filled microvesicles and ultrasound for therapy.
Nimodipine (Sigma Aldrich, Switzerland) powder was first diluted in DMSO (40 mg/ml); the injected dose (1.4 mg/kg) was extemporary prepared in NaCl 0.9% and injected 10 min before the treatment.
The treatment parameters were chosen in accordance with the previous studies to obtain the generation of a vasospasm. P01 formulation was administered for this study.
This study aimed at assessing the efficacy of different pharmacological classes of vasospasm inhibitor drugs currently used in clinic on the vasospasm inhibition.
The duration between pre-treatment and injection of microvesicles and ultrasound treatment was in accordance with the pharmacocinetik pharmacokinetics and pharmacodynamics of each drug.

NMU rat tumor model = assay: Extravasation of Cy5.5-labeled 150 kDa-dextran in tumour after US-MV treatment (Example 1); type: in vivo
Method: The model used was the NMU rat tumor model. Pre-pubescent rats (female, Sprague Dawley) received a single intra-peritoneal injection of 50 mg/kg of NMU (N-nitroso-N-methylurea, Sigma, Switzerland). Rats developing tumours were enrolled in protocol. In the NMU model, animals can develop several tumours allowing to have tumors receiving microvesicles and ultrasound for therapy; and tumors without ultrasound insonation (called untreated) in the same animal. The rats were anesthetized and placed on dorsal decubitus. A catheter was placed in the tail vein to inject drugs and microvesicles. The US treatment transducer was placed at 5 cm of the tumor (spaced by a water tank). […] To evaluate the efficiency of molecular extravasation, a 150 kDa-dextran labeled with Cy©5.5 fluorophore was injected just before therapeutic treatment with ultrasounds and microvesicles. […] Tumors were then harvested from sacrificed animals; the fluorescence was quantified on image acquired ex vivo (Fluobeam® 700). The fluorescence was quantified by ImageJ software.

mouse DA3 tumor model = assay: Tumour perfusion during US-MV treatment followed by contrast echography (Example 5); type: in vivo; conditions: Nimodipine 1.4 mg/kg iv 10 min before; P01 1.3E+09 MV/kg, 4 boluses; US 800 kPa, 1 ms ON/15 s OFF, 25 min
Method: The mouse DA3 tumor model was used in these studies. The US treatment was delivered by the Verasonic® system (probe P4-2). The probe was placed at 5 cm from the tumor (spaced by a water tank, filled with degassed water). […] The perfusion of each tumor was followed by the echographic signal of microvesicles (Verasonic® system). The signal was recorded and post-analysed with Vuebox® software. […] The expression “replenishment time” indicates the time required to supply the area under the ultrasound beam with the vessel with fresh gas-filled microvesicles, after the substantial destruction of MV caused by each US pulse. The expression “MV destruction” corresponds to the loss of integrity or structure of MV caused by acoustic activation of MV by US. This can be provoked for example by MV collapse or gas dissolution and monitored by acoustic signal follow up. All parameters relative to microvesicles and ultrasound treatment were fixed (see Table 4). The therapeutic insonation parameters were chosen in accordance with the previous studies, to obtain a vascular permeabilization in the DA3 tumor.

NMU tumor = assay: Tumour perfusion during US-MV treatment followed by contrast echography (Example 6); type: in vivo, rat; conditions: Nimodipine 1.4 mg/kg iv 10 min before; P02 1.2E+09 MV/kg, 4 boluses; US 600 kPa, 1 ms ON/15 s OFF, 20 min
Method: Pre-pubescent rats (female, Sprague Dawley) received a single intra-peritoneal injection of 50 mg/kg of NMU (N-nitroso-N-methylurea, Sigma, Switzerland). […] Serial bolus injections of gas-filled microvesicles (as specified in Table 5) were performed and the tumor was submitted to therapeutic insonation (frequency, acoustic pressure and pulse characteristics as specified in the subsequent examples). The perfusion of tumor during treatment was assessed as described in Example 5. All parameters relative to microvesicles and ultrasound treatment were fixed (see Table 5). The therapeutic insonation parameters were chosen in accordance with the previous studies, to obtain a vascular permeabilization in the NMU tumor.

[2] = system: mesenteric rat microcirculation; assay: Vasospasm inhibition by vasospasm inhibitor pre-treatment before US-MV (Examples 4, 7); type: in vivo; conditions: Nimodipine 1.4 mg/kg, pre-treatment time 10 min; P02 1.5E+09 MV/kg, 1 bolus; US 400 kPa, 1 ms ON/10 s OFF, 5 min
[3] = Trinitrine (dose not given), pre-treatment time 1 min
[4] = Prazosin 0.5 mg/kg, pre-treatment time 10 min
[5] = Mg^2+ 300 mM, pre-treatment time 0 min

C[C@H](CS)C(=O)N1CCC[C@H]1C(=O)O [Captoprill, Captopril]
ability to inhibit the vasospasm [1]: did not show any relevant inhibiting activity

O=[N+]([O-])OCC(CO[N+](=O)[O-])O[N+](=O)[O-] [Trinitrine]
ability to inhibit the vasospasm [1]: good ability to inhibit the vasospasm
Vasospasm occurrence (on 3 animals/condition) [1, 3]: 0/3
Vasospasm occurrence, percent [1, 3]: (0%)

COCCOC(=O)C1=C(C)NC(C)=C(C(=O)OC(C)C)C1c1cccc([N+](=O)[O-])c1 (stereo not shown) [Nimodipine]
mean fluorescence value (Cy5.5 dextran in tumour, ex vivo) (NMU rat tumor model; fifth group: VI pre-administration (Nimodipine 1.4 mg/kg, 10 min before) then US-MV, 600 kPa, 1 ms ON/10 s OFF, 20 min): 2060 RFU/px/ms
mean fluorescence signal (Cy5.5 dextran in tumour, ex vivo) (NMU rat tumor model; third group: VI+MV, no US, Nimodipine 1.4 mg/kg 10 min before, MV P02 or Definity 8 μl gas/kg in 4 boluses): 1030 RFU/px/ms
Decrease of perfusion in tumor, percent (mouse DA3 tumor model): 0%
Decrease of perfusion in tumor, percent (NMU tumor): (100%)
Vasospasm occurrence (on 3 animals/condition) [2]: 0/3
Vasospasm occurrence, percent [2]: 100%

COc1cc2nc(N3CCN(C(=O)c4ccco4)CC3)nc(N)c2cc1OC [Prazosin]
ability to inhibit the vasospasm [1]: lower ability
Vasospasm occurrence (on 3 animals/condition) [1, 4]: 1/3
Vasospasm occurrence, percent [1, 4]: 33%

[Mg+2] [Mg^2+, magnesium]
ability to inhibit the vasospasm [1]: good ability to inhibit the vasospasm
Vasospasm occurrence (on 3 animals/condition) [1, 5]: 0/3
Vasospasm occurrence, percent [1, 5]: 0%
